Patent US20240335451A1, “ACRYLAMIDE DERIVATIVES USEFUL AS ANTI-INFLAMMATORY AGENTS” (Sitryx Therapeutics Limited, priority 2021, published 2024)

Experiments:
Type in all cases: cell-based
[1] = tested on: IL-1β cytokine output from THP-1s; assay: THP-1 AlphaLISA IL-1β cytokine assay (differentiated THP-1 cells, LPS then nigericin); details: Homo sapiens, 30 min pre-incubation, LPS 24 hr, nigericin 1 hour
Experimental: (§1) Measuring Inhibitory Effects on IL-1β and IL-6 Cytokine Output from THP-1s
(§2) The cytokine inhibition profiles of compounds of formula (I) were determined in a differentiated THP-1 cell assay. All assays were performed in RPMI-1640 growth medium (Gibco), supplemented with 10% fetal bovine serum (FBS; Gibco), 1% penicillin-streptomycin and 1% sodium pyruvate unless specified otherwise. The IL-1β and IL-6 cytokine inhibition assays were each run in a background of differentiated THP-1 cells as described below. All reagents described were from Sigma-Aldrich unless specified otherwise. Compounds were prepared as 10 mM DMSO stocks.
(§3) THP-1 cells were expanded as a suspension up to 80% confluence in appropriate growth medium. Cells were harvested, suspended, and treated with an appropriate concentration of phorbol 12-myristate 13-acetate (PMA) over a 72 hr period (37° C./5% CO2).
(§4) Following 72 hrs of THP-1 cell incubation, cellular medium was removed and replaced with fresh growth media containing 1% of FBS. Working concentrations of compounds were prepared separately in 10% FBS treated growth medium and pre-incubated with the cells for 30 minutes (37° C./5% CO2). Following the 30 minute compound pre-incubation, THP-1s were treated with an appropriate concentration of LPS and the THP-1s were subsequently incubated for a 24 hr period (37° C./5% CO2). An appropriate final concentration of Nigericin was then dispensed into the THP-1 plates and incubated for 1 hour (37° C./5% CO2) before THP-1 supernatants were harvested and collected in separate polypropylene 96-well holding plates.
(§5) Reagents from each of the IL-1β and IL-6 commercial kits (Perkin Elmer) were prepared and run according to the manufacturer's instructions. Subsequently, fluorescence signal detection in a microplate reader was measured (EnVision® Multilabel Reader, Perkin Elmer).
(§6) Percentage inhibition was calculated per cytokine by normalizing the sample data to the high and low controls used within each plate (+/−LPS respectively).

[2] = tested on: IL-6 cytokine output from THP-1s; assay: THP-1 AlphaLISA IL-6 cytokine assay (differentiated THP-1 cells, LPS then nigericin); details: Homo sapiens, 30 min pre-incubation, LPS 24 hr, nigericin 1 hour
Experimental: as §1, §2, §3, §4, §5, §6

[3] = tested on: NRF2 (nuclear factor erythroid 2-related factor 2); assay: NRF2 activation assay (DiscoverX PathHunter NRF2 translocation kit, U2OS cells); details: Homo sapiens; for Emax: U2OS, normalised to dimethyl fumarate high control; for EC50: U2OS PathHunter cells, 6 hours
[4] = +GSH (30 minute compound/GSH pre-incubation)

IC50 [1]	IC50 [2]	EC50 [3, 4]	EC50 ([3]; −GSH)	Compound	Emax ([3]; +GSH)	Emax ([3]; −GSH)
13.2 µM	8.3 µM	> 100 µM	35.2 µM	C=C(CC(=O)OC1(c2cc(Cl)cc(Cl)c2)CCC1)C(N)=O [Example 20, 1-(3,5-dichlorophenyl)cyclobutyl 3-carbamoylbut-3-enoate]	28%	156%
11 µM	9.4 µM	> 100 µM	14.5 µM	C=C(CC(=O)OC1(c2ccc(C(F)(F)F)c(F)c2)CCC1)C(=O)NC [Example 22, 1-(3-fluoro-4-(trifluoromethyl)phenyl)cyclobutyl 3-(methylcarbamoyl)but-3-enoate]	48%	109%
9.5 µM	> 100 µM	> 100 µM	> 100 µM	C=C(Cc1nc(C2(c3ccc(SC(F)(F)F)cc3)CC2)no1)C(=O)NCC(=O)O [Example 27, (2-((3-(1-(4-((trifluoromethyl)thio)phenyl)cyclopropyl)-1,2,4-oxadiazol-5-yl)methyl)acryloyl)glycine]	20%	26%
7.9 µM	16.2 µM	> 100 µM	31.8 µM	C=C(Cc1nc(C2(c3ccc(SC(F)(F)F)cc3)CC2)no1)C(=O)NC(C(=O)O)C(F)(F)F (stereo not drawn) [Example 28, 3,3,3-trifluoro-2-(2-((3-(1-(4-((trifluoromethyl)thio)phenyl)cyclopropyl)-1,2,4-oxadiazol-5-yl)methyl)acrylamido)propanoic acid]	34%	67%
> 100 µM	> 100 µM	–	–	C=C(CC(=O)OC)C(=O)OC [dimethyl itaconate, reference compound]	–	126%
